Measured values reported in US10543202B2 (University of Saskatchewan, priority 2017, dated 2020).
Entries after “also recorded” stand apart in the source; their conditions may differ.

Experiments:
Assay type in all cases: physicochemical
[1] = Thin film of cream exposed to UVA light (photostability); settings: for effect of photostabilizer in nifedipine emulsion on stability of nifedipine to UVA light: photostabilizer incorporated at varying concentrations up to 3% w/w in nifedipine 2% w/w cream
Text: (§1) Light Exposure: A UVA lamp was mounted 8.5 inches above a lab bench surface and the flux set to 740-750 μW/cm^2. This level of flux is roughly equivalent to a bright sunny day in mid-summer. […] The lamp apparatus was placed inside an enclosure with an access door, to prevent ambient light entering and for worker safety. For samples exposed to “ambient light”, these were placed on a laboratory bench where standard fluorescent lighting was used. […] To prevent drying, the samples were covered with Saran Wrap®, a plastic film that was determined to be UVA-transparent. After the allotted exposure time the cream was scraped off the slide for extraction with methanol. Samples which were exposed while in solution and not incorporated in a cream were dissolved in methanol as a 20 mL solution in a 100 mL beaker.
The sample was warmed in a water bath to 85° C. to melt lipids, followed by addition of 5 mL of methanol and vortex mixing. The samples were centrifuged at 14,000×g for 5 minutes and the supernatant retained for analysis.
Values reported represent mean±SD for triplicate measurements.

[2] = Mass spectrometry analysis of nifedipine and its photodegradants in UVA-exposed creams
Text: as §1

[3] = Emulsion phase stability analysis (LUMiSizer photocentrifuge, instability index); settings: photocentrifuge 42° C., 12 hrs, versus emulsion without photostabilizers
Procedure: This allows for an approximation of the relative stability to phase separation of emulsions that differ in the type or percentage of photoprotectant and for confirming batch-to-batch consistency in stability against phase separation.^35 For each sample type, triplicate samples of 2 mL were loaded into photocentrifuge acrylic cuvettes. The samples were centrifuged at 42° C.×12 hrs. Phase separation was detected as an increase in light transmission at the top of the sample, which is interpreted as an “instability index” reflecting the rate of change of light transmission.

difference in nifedipine concentration between preparations with and without rutin ([1]; 2 h UVA exposure) | effectiveness as photoprotectant for nifedipine in O/W emulsion ([1]; concentrations up to 2% (w/w)) | Compound | effect of photostabilizer in nifedipine emulsion on stability of nifedipine to UVA light [1] | alternative nifedipine degradation pathways in presence of photostabilizer [2] | effect of photostabilizer on instability index / phase stability of nifedipine emulsion [3] | effect of quercetin on photostability of nifedipine cream after UVA exposure ([1]; quercetin 0.5% w/w alone in nifedipine cream) | reduction of UVA-induced degradation of nifedipine ([1]; rutin 0.5-3% (w/w), 20 mg thin film, over 3 hrs)
– | – | COc1ccc(C(=O)CC(=O)c2ccc(C(C)(C)C)cc2)cc1 [BMDBM, 1-(4-methoxyphenyl)-3-[4-(2-methyl-2-propanyl)phenyl]-1,3-propanedione] | moderately effective | no alternative degradation pathways identified | reduced the instability; also recorded: increased the stability of the nifedipine emulsion | – | –
– | – | O=c1c(O)c(-c2ccc(O)c(O)c2)oc2cc(O)cc(O)c12 [quercetin, 2-(3,4-dihydroxyphenyl)-3,5,7-trihydroxy-4H-chromen-4-one] | increased the stability of nifedipine to UVA light | no alternative degradation pathways identified | reduced the instability; also recorded: increased the stability of the nifedipine emulsion | moderately effective; also recorded: photostability was improved | –
No significant difference | ineffective | C[C@@H]1O[C@@H](OC[C@H]2O[C@@H](Oc3c(-c4ccc(O)c(O)c4)oc4cc(O)cc(O)c4c3=O)[C@H](O)[C@@H](O)[C@@H]2O)[C@H](O)[C@H](O)[C@H]1O [rutin, 2-(3,4-dihydroxyphenyl)-5,7-dihydroxy-4-oxo-4H-chromen-3-yl 6-O-(6-deoxy-α-L-mannopyranosyl)-β-D-glucopyranoside] | not protected from photodegradation; also recorded: not effective | no alternative degradation pathways identified | – | – | did not significantly reduce UVA-induced degradation of nifedipine
